Reference: PMC11329750 (Clinical and Translational Science, 2024)

Assays:
[1] = 900 mg SJW of another brand; absence of autoinduction; cited from earlier work
CYP3A [2] = assay: Oral midazolam microdose; assay type: in vivo, human; settings: for F GMR: GMR (90% CI); for bioavailability: F (absolute bioavailability)
CYP3A [3] = assay: Intravenous midazolam microdose; assay type: in vivo, human
CYP3A [4] = settings: 900 mg SJW daily, same brand; cited from earlier work
CYP3A [5] = assay: Limited-sampling strategy; settings: human, in vivo, po, 30 ug
[6] = cited from earlier work
[7] = SJW 1800 + rifampin 600 for 7 days vs SJW 1800

With `NC(=O)N1c2ccccc2C=Cc2ccccc21` [carbamazepine] as the compound, how does the “reduction of exposure to single carbamazepine doses” value [1] read?
Its value is 21%.

With `Cc1ncc2n1-c1ccc(Cl)cc1C(c1ccccc1F)=NC2` [midazolam] as the compound, how does the “F GMR” value (CYP3A [2]; 30 μg midazolam orally, SJW 1800 + rifampin 600 vs baseline) read?
The value was 0.2070 (0.1704–0.2516).

And the “F GMR” value (CYP3A [2]; 30 μg midazolam orally, SJW 1800 vs baseline)?
Its value is 0.4437 (0.3735–0.5271).

What about the CL/F (CYP3A [2]; 30 μg midazolam orally, baseline, GM (95% CI)) of the same compound?
Its CL/F is 1649 (1290–2109) mL min^−1.

What about the “further increase of midazolam CL orally” value (CYP3A [2]; [7]) of the same compound?
The value was 3.06 fold.

And the AUC(0-inf) (CYP3A [2]; human, plasma, po, 30 ug)?
Its AUC(0-inf) is 0.303 ng·h/mL.

What about the AUC(0-t) (CYP3A [2]; human, plasma, po, 30 ug) of the same compound?
Its AUC(0-t) is 0.258 ng·h/mL.

What about the Cmax (CYP3A [2]; human, plasma, po, 30 ug) of the same compound?
The Cmax was 0.139 ng/mL.

And the Vd/F (CYP3A [2]; human, plasma, po, 30 ug)?
The Vd/F was 422 L.

What about the bioavailability (CYP3A [2]; human, plasma, po, 30 ug, 30 μg midazolam orally, SJW 1800 mg/day for 14 days, GM (95% CI)) of the same compound?
The bioavailability was 15.6%.

What about the bioavailability (CYP3A [2]; human, plasma, po, 30 ug, 30 μg midazolam orally, baseline, GM (95% CI)) of the same compound?
Its bioavailability is 35.1%.

And the “further increase of midazolam CL i.v.” value (CYP3A [3]; [7])?
The value was 1.43 fold.

And the AUC(0-inf) (CYP3A [3]; human, plasma, intravenous, 10 ug)?
The AUC(0-inf) was 0.287 ng·h/mL.

What about the AUC(0-inf) (CYP3A [3]; human, plasma, iv, 10 ug) of the same compound?
The AUC(0-inf) was 0.334 ng·h/mL.

And the Vd (CYP3A [3]; human, plasma, iv, 10 ug)?
Its Vd is 148 L.

And the half-life (CYP3A [3]; human, plasma, iv, 10 ug)?
The half-life was 2.97 h.

What about the “fold increase of midazolam clearance with a regular midazolam dose” value (CYP3A [4]) of the same compound?
Its value is 4.22.

What about the AUC (CYP3A [5]) of the same compound?
The AUC was 0.0657 ng·h/mL.

Which “daily doses at which maximum induction is already reached” value [6] does the source give for `CO[C@H]1/C=C/O[C@@]2(C)Oc3c(C)c(O)c4c(O)c(c(/C=N/N5CCN(C)CC5)c(O)c4c3C2=O)NC(=O)/C(C)=C\C=C\[C@H](C)[C@H](O)[C@@H](C)[C@@H](O)[C@@H](C)[C@H](OC(C)=O)[C@@H]1C` [rifampin] here?
Its value is 300 to 600 mg.
